Measured values from patent publication US7972780B2, “ITPase gene polymorphisms associated with adverse drug reactions to azathioprine therapy” (Guy's and St. Thomas' NHS Foundation Trust, priority 2004, dated 2011).
Like-named read-outs stand apart in the source and are kept apart here.

Experiments:
patients = details: Dubinsky et al. 2001; cited from earlier work
[1] = system: Caucasian patients with IBD; details: for Odds ratio, All side effects: ADR n = 62 vs controls n = 68; for Odds ratio, Hepatotoxicity / Odds ratio, Other: n = 4 vs controls; for Odds ratio, Neutropenia: n = 11 vs controls; for Odds ratio, Flu-like symptoms: n = 16 vs controls
[2] = ITPA 94C>A, TPMT heterozygous genotypes excluded

## Nc1nc2nc[nH]c2c(=S)[nH]1 [thioguanine, 6-thioguanine]
patients
  use in patients with 6-MP/AZA-related toxicity: used successfully

## Cn1cnc([N+](=O)[O-])c1Sc1ncnc2nc[nH]c12 [azathioprine]
[1]; ITPA 94C > A variant genotype
  Odds ratio, All side effects: 4.2
[1]; ITPA 94C > A
  Odds ratio, Hepatotoxicity: 10.3
  Odds ratio, Other: 3.4
  Odds ratio, Neutropenia: 1.0
  Odds ratio, Flu-like symptoms: 4.7
[1]; ITPA 94C > A, n = 6 vs controls
  Odds ratio, Rash: 10.3
[1]; ITPA 94C > A, n = 8 vs controls
  Odds ratio, Pancreatitis: 6.2
[1]; ITPA 94C > A, n = 13 vs controls
  Odds ratio, Nausea and vomiting: 3.1
[1]; [2]
  Odds ratio, Nausea and vomiting: 6.2
  Odds ratio, Pancreatitis: 7.8
  Odds ratio, Rash: 15.5
[1]; ITPA 94C>A, TPMT heterozygous genotypes excluded from side-effect cohort
  Odds ratio, adverse drug reactions: 5.3
[1]; ITPA IVS2 + 21A > C variant genotype
  Odds ratio, All side effects: 0.7
[1]; ITPA IVS2 + 21A > C
  Odds ratio, Hepatotoxicity: 0.5
  Odds ratio, Other: 4.2
  Odds ratio, Neutropenia: 0.4
  Odds ratio, Flu-like symptoms: 1.0
[1]; ITPA IVS2 + 21A > C, n = 6 vs controls
  Odds ratio, Rash: 0.9
[1]; ITPA IVS2 + 21A > C, n = 8 vs controls
  Odds ratio, Pancreatitis: 0.6
[1]; ITPA IVS2 + 21A > C, n = 13 vs controls
  Odds ratio, Nausea and vomiting: 0.4
[1]; TPMT *3A + C variant genotype
  Odds ratio, All side effects: 1.7
[1]; TPMT *3A + C
  Odds ratio, Hepatotoxicity: 2.9
  Odds ratio, Neutropenia: 0.9
  Odds ratio, Flu-like symptoms: 0.3
[1]; TPMT *3A + C, n = 6 vs controls
  Odds ratio, Rash: 4.4
[1]; TPMT *3A + C, n = 8 vs controls
  Odds ratio, Pancreatitis: 1.3
[1]; TPMT *3A + C, n = 13 vs controls
  Odds ratio, Nausea and vomiting: 5.5
[1]; TPMT and ITPA 94C>A genotypes combined
  Odds ratio, risk of experiencing an adverse drug reaction: 3.5
[1]; of the 4 re-challenged patients heterozygous for a variant TPMT allele
  patients remaining intolerant on re-challenge with reduced dose: two patients remained intolerant
[1]; of the 62 patients suffering adverse drug reactions
  patients in whom therapy could be continued at full dose: 5
[1]; patients with ITPA 94C>A alleles
  patients who tolerated a reduced dose: 3 of 6
IBD patients; ITPA 94C>A, 6 patients
  Odds ratio, Rash: 10.833
IBD patients; ITPA 94C>A, 11 patients
  Odds ratio, flu-like symptoms: 6.190
IBD patients; ITPA 94C>A, 64 ADR patients vs 71 without side-effects, dominant model
  Odds ratio, adverse drug reactions to AZA therapy: 4.239
IBD patients; variant TPMT genotypes, subset of 14 patients
  Odds ratio, Nausea and vomiting: 5.079
